Measurements reported in ChEMBL document CHEMBL5543126, “Combinatorial Ubiquitination REal-time PROteolysis (CURE-PROs): A Modular Platform for Generating Reversible, Self-Assembling Bifunctional Targeted Degraders” (J Med Chem, 2024).
Calls of active or inactive are those of the source. The calls are words filed in the database; no cut-off is given here.

Assays:
[1] = target: T1, von Hippel-Lindau disease tumor suppressor/Bromodomain-containing protein 4 (Homo sapiens, UniProt O60885+P40337); experiment: PROTAC activity at BRD4/VHL in human MCF7 cells assessed as reduction in BRD4 level incubated for 24 hrs in presence of BRD4 based ligand ((4S)-6-(4-chlorophenyl)-4-(2-(ethylamino)-2-oxoethyl)-1-methyl4Hbenzo[f][1,2,4]triazolo [4,3-a][1,4]diazepin-8-yl)boronic acid by Western blot based Combinatorial Ubiquitination Real-time PROteolysis analysis; assay type: cell-based
T1 sequence (P40337 whole entry, looked up, other chains not shown): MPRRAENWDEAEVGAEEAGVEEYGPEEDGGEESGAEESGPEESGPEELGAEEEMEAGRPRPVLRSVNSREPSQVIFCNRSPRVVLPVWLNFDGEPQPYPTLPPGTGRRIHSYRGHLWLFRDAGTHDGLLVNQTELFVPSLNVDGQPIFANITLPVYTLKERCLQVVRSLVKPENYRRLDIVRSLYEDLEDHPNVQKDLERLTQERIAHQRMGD

[2] = target: T1, von Hippel-Lindau disease tumor suppressor/Bromodomain-containing protein 4; experiment: PROTAC activity at VHL/BRD4 in HEK293 cells assessed as induction of BRD4 degradation by measuring Tmax at 10 uM measured every 15 mins for 24 hrs in presence of VHL based ligand (2S,4R)-1-((S)-2-(2,3-dihydroxybenzamido)-3,3-dimethylbutanoyl)-4-hydroxy-N-(4-(4-methylthiazol-5-yl)benzyl)pyrrolidine-2-carboxamide by HiBiT based Combinatorial Ubiquitination Real-time PROteolysis analysis; assay type: cell-based
[3] = target: T1, von Hippel-Lindau disease tumor suppressor/Bromodomain-containing protein 4; experiment: PROTAC activity at BRD4/VHL in human MCF7 cells assessed as induction of BRD4 degradation by measuring residual activity at 30 nM incubated for 24 hrs by Western blot analysis; assay type: cell-based
[4] = target: T1, von Hippel-Lindau disease tumor suppressor/Bromodomain-containing protein 4; experiment: PROTAC activity at BRD4/VHL in human MCF7 cells assessed as induction of BRD4 degradation by measuring residual activity at 100 nM incubated for 24 hrs by Western blot analysis; assay type: cell-based
[5] = target: T1, von Hippel-Lindau disease tumor suppressor/Bromodomain-containing protein 4; experiment: PROTAC activity at BRD4/VHL in human MCF7 cells assessed as induction of BRD4 degradation by measuring residual activity at 300 nM incubated for 24 hrs by Western blot analysis; assay type: cell-based
[6] = target: T1, von Hippel-Lindau disease tumor suppressor/Bromodomain-containing protein 4; experiment: PROTAC activity at BRD4/VHL in human MCF7 cells assessed as induction of BRD4 degradation by measuring residual activity at 1 uM incubated for 24 hrs by Western blot analysis; assay type: cell-based
[7] = target: T1, von Hippel-Lindau disease tumor suppressor/Bromodomain-containing protein 4; experiment: PROTAC activity at BRD4/VHL in human MCF7 cells assessed as induction of BRD4 degradation by measuring residual activity at 3 uM incubated for 24 hrs by Western blot analysis; assay type: cell-based
[8] = target: T1, von Hippel-Lindau disease tumor suppressor/Bromodomain-containing protein 4; experiment: PROTAC activity at BRD4/VHL in human MCF7 cells assessed as induction of BRD4 degradation by measuring residual activity at 10 uM incubated for 24 hrs by Western blot analysis; assay type: cell-based
[9] = target: T1, von Hippel-Lindau disease tumor suppressor/Bromodomain-containing protein 4; experiment: (§1) PROTAC activity at BRD4/VHL in human MCF7 cells assessed as induction of BRD4 degradation by measuring residual activity at 300 nM incubated for 24 hrs in presence of VHL based ligand (2S,4R)-1-((S)-2-(2,3-dihydroxybenzamido)-3,3-dimethylbutanoyl)-4-hydroxy-N-(4-(4-methylthiazol-5-yl)benzyl)pyrrolidine-2-carboxamide by Western blot based Combinatorial Ubiquitination Real-time PROteolysis analysis; assay type: cell-based
[10] = target: T1, von Hippel-Lindau disease tumor suppressor/Bromodomain-containing protein 4; experiment: as §1, with “activity at 1 uM incubated for” for “activity at 300 nM incubated for”, “presence of 1 uM VHL based” for “presence of VHL based”; assay type: cell-based
[11] = target: T1, von Hippel-Lindau disease tumor suppressor/Bromodomain-containing protein 4; experiment: as §1, with “presence of 3 uM VHL based” for “presence of VHL based”; assay type: cell-based
[12] = target: T1, von Hippel-Lindau disease tumor suppressor/Bromodomain-containing protein 4; experiment: as §1, with “presence of 10 uM VHL based” for “presence of VHL based”; assay type: cell-based
[13] = Metabolic stability in C57BL/6 mouse liver microsome assessed as half life at 1 uM measured upto 60 mins by LC-MS/MS analysis; assay type: ADME, microsomes
[14] = Metabolic stability in C57BL/6 mouse liver microsome at 1 uM measured upto 60 mins in presence of NADPH/UDPGA by LC-MS/MS analysis; assay type: ADME, microsomes
[15] = Metabolic stability in C57BL/6 mouse liver microsome at 1 uM measured upto 60 mins in absence of NADPH/UDPGA by LC-MS/MS analysis; assay type: ADME; details: liver microsomes, read-out: Stability
[16] = Metabolic stability in human liver microsome assessed as half life at 1 uM measured upto 60 mins by LC-MS/MS analysis; assay type: ADME; details: liver microsomes
[17] = Metabolic stability in human liver microsome at 1 uM measured upto 60 mins in presence of NADPH/UDPGA by LC-MS/MS analysis; assay type: ADME; details: liver microsomes, read-out: Stability
[18] = Metabolic stability in human liver microsome at 1 uM measured upto 60 mins in absence of NADPH/UDPGA by LC-MS/MS analysis; assay type: ADME; details: liver microsomes, read-out: Stability
[19] = Cmax in C57BL/6 mouse at 10 mg/kg, ip measured upto 24 hrs by LC-MS/MS analysis; assay type: ADME, organism-based; details: in vivo
[20] = Tmax in C57BL/6 mouse at 10 mg/kg, ip measured upto 24 hrs by LC-MS/MS analysis; assay type: ADME, organism-based; details: in vivo
[21] = AUClast in C57BL/6 mouse at 10 mg/kg, ip measured upto 24 hrs by LC-MS/MS analysis; assay type: ADME, organism-based; details: in vivo
[22] = Half life in C57BL/6 mouse at 10 mg/kg, ip measured upto 24 hrs by LC-MS/MS analysis; assay type: ADME, organism-based; details: in vivo
[23] = target: T1, von Hippel-Lindau disease tumor suppressor/Bromodomain-containing protein 4; experiment: (§2) PROTAC activity at VHL/BRD4 in HEK293 cells assessed as induction of BRD4 degradation by measuring degradation rate at 3 uM measured every 15 mins for 24 hrs in presence of BRD4 based ligand ((4S)-6-(4-chlorophenyl)-4-(2-(ethylamino)-2-oxoethyl)-1-methyl4Hbenzo[f][1,2,4]triazolo [4,3-a][1,4]diazepin-8-yl)boronic acid by HiBiT based Combinatorial Ubiquitination Real-time PROteolysis analysis; assay type: cell-based
[24] = target: T1, von Hippel-Lindau disease tumor suppressor/Bromodomain-containing protein 4; experiment: as §2, with “at 10” for “at 3”; assay type: cell-based
[25] = target: T1, von Hippel-Lindau disease tumor suppressor/Bromodomain-containing protein 4; experiment: (§3) PROTAC activity at BRD4/VHL in human MCF7 cells assessed as induction of BRD4 degradation by measuring residual activity at 100 nM incubated for 24 hrs in presence of 300 nM BRD4 based ligand ((4S)-6-(4-chlorophenyl)-4-(2-(ethylamino)-2-oxoethyl)-1-methyl4Hbenzo[f][1,2,4]triazolo [4,3-a][1,4]diazepin-8-yl)boronic acid by Western blot based Combinatorial Ubiquitination Real-time PROteolysis analysis; assay type: cell-based
[26] = target: T1, von Hippel-Lindau disease tumor suppressor/Bromodomain-containing protein 4; experiment: as §3, with “300” for “100”; assay type: cell-based
[27] = target: T1, von Hippel-Lindau disease tumor suppressor/Bromodomain-containing protein 4; experiment: as §3, with “3 uM” for “100 nM”; assay type: cell-based
[28] = target: T1, von Hippel-Lindau disease tumor suppressor/Bromodomain-containing protein 4; experiment: as §3, with “30” for “100”, “3 uM” for “300 nM”; assay type: cell-based
[29] = target: T1, von Hippel-Lindau disease tumor suppressor/Bromodomain-containing protein 4; experiment: as §3, with “10 uM” for “100 nM”, “10 uM” for “300 nM”; assay type: cell-based

SMILES | Activity [3] [%] | Activity [4] [%] | Activity [5] [%] | Activity [6] [%] | Activity [7] [%] | Activity [8] [%] | remaining at 1 h, 1 µM [15] [%] | half-life at 1 µM [16] [h] | remaining at 1 h, 1 µM [17] [%] | remaining at 1 h, 1 µM [18] [%] | Cmax [19] [ng/mL] | Tmax [20] [h] | AUC(0-t) at 24 h [21] [ng·h/mL] | half-life [22] [h] | other results
CCNC(=O)C[C@@H]1N=C(c2ccc(Cl)cc2)c2cc(B(O)O)ccc2-n2c(C)nnc21 | 116 | 121 | 147 | 91 | 71 | 68 | 100 | > 1 | 107 | 101 | 1480 | 0.5 | 1860 | 6.3 | Activity [1]: inactive; Tmax [2]: 22.2 h; Activity [9]: 100%; Activity [10]: 35%; Activity [11]: 37%; Activity [12]: 40%; t1/2 ([13]; mouse, microsomes, 1 h, 1 µM): 0.483 h; Stability ([14]; mouse, microsomes, 1 h, 1 µM): 112%
Cc1ncsc1-c1ccc(CNC(=O)[C@@H]2C[C@@H](O)CN2C(=O)[C@@H](NC(=O)c2cccc(O)c2O)C(C)(C)C)cc1 | 102 | 108 | 86 | 92 | 113 | 95 | 83 | > 1 | 73 | 87 | 1570 | 0.5 | 2340 | 6.3 | Activity [23]: 0.908 h⁻¹; Activity [24]: 4.18 h⁻¹; Activity [25]: 77%; Activity [26]: 68%; Activity [27]: 39%; Activity [28]: 90%; Activity [29]: 6%; half-life at 1 µM ([13]; C57BL/6, mouse, liver microsomes): > 1 h; remaining at 1 h, 1 µM ([14]; C57BL/6, mouse, liver microsomes, read-out: Stability): 24%
